Experimental data published in ChEMBL document CHEMBL1144618, “Convenient synthesis and in vitro pharmacological activity of 2-thioanalogs of salvinorins A and B” (Bioorg Med Chem Lett, 2007).

Legend:
[1] = molecular target: Kappa-type opioid receptor (Homo sapiens, UniProt P41145); assay: Activity at human kappa opioid receptor expressed in HEK293 cells as intracellular calcium mobilization; assay type: functional, cell-based
[2] = molecular target: Kappa-type opioid receptor (Rattus norvegicus, UniProt P34975); assay: Displacement of [3H]U-69593 from rat cloned KOR
Chain of Kappa-type opioid receptor (Rattus norvegicus, UniProt P34975) (P34975 whole entry): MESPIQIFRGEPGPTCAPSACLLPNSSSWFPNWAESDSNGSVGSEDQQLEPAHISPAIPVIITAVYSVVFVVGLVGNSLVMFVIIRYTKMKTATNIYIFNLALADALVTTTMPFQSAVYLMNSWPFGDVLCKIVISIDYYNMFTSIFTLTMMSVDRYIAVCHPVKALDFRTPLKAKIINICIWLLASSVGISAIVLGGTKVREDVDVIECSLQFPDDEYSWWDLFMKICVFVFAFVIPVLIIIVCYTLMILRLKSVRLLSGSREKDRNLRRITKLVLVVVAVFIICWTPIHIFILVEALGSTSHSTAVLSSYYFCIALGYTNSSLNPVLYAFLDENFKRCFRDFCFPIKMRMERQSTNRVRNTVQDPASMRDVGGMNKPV

Chain of Kappa-type opioid receptor (Homo sapiens, UniProt P41145) (P41145 whole entry): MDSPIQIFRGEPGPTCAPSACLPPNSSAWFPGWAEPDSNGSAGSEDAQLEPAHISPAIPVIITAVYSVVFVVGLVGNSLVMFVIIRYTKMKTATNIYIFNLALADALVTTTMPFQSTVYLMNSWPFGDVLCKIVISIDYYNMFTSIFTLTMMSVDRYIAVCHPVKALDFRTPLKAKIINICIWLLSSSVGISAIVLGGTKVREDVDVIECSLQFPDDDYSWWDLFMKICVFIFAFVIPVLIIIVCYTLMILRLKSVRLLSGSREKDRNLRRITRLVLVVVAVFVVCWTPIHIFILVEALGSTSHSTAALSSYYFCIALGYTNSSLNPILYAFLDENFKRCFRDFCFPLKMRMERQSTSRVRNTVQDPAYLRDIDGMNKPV

`COC(=O)[C@@H]1C[C@@H](SC(C)=O)C(=O)[C@H]2[C@@]1(C)CC[C@H]1C(=O)O[C@H](c3ccoc3)C[C@]21C` [2-EPI-2-THIOSALVINORIN A] was tested, and the EC50 [1] was 123 nM, the Emax [1] was 106% and the Ki [2] was 151 nM.

With `COC(=O)[C@@H]1C[C@@H](S)C(=O)[C@H]2[C@@]1(C)CC[C@H]1C(=O)O[C@H](c3ccoc3)C[C@]21C` [2-EPI-2-THIOSALVINORIN B] the EC50 [1] was > 2000 nM, the Emax [1] was 71% and the Ki [2] was 546 nM.

In the case of `COC(=O)[C@@H]1C[C@H](S)C(=O)[C@H]2[C@@]1(C)CC[C@H]1C(=O)O[C@H](c3ccoc3)C[C@]21C` [2-THIOSALVINORIN B], the EC50 [1] is reported as 287 nM, the Emax [1] is reported as 89% and the Ki [2] is reported as 54.5 nM.
